# Laboratory results from US20230405003A1, “APPLICATION OF THYMIDINE DERIVATIVE IN PREPARATION OF DRUGS” (ONQUALITY PHARMACEUTICALS CHINA LTD., priority 2020, published 2023).
# Read-outs that look alike come from different tables or passages of the source.
# How the values were obtained:
# [1] = tested on: hand-foot syndrome caused by capecitabine in SD rats; experiment: Rat model of hand-foot syndrome caused by capecitabine, gel application; assay type: in vivo; settings: capecitabine 4000 mg/kg once daily, 40 days; for inhibition in vivo at 3 % / inhibition in vivo at 0.1 % / inhibition in vivo at 0.5 % / inhibition in vivo at 1 % / inhibition in vivo at 5 %: Rattus norvegicus, topical, 960 h; for inhibition in vivo at 3 % / inhibition in vivo at 0.1 % / inhibition in vivo at 0.5 % / inhibition in vivo at 1 % / inhibition in vivo at 5 % / Control Rate Forepaws / Control Rate Hindpaws: rats; for Control Rate: SD rats
# Summary of the method: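 Female SD rats (~200 g, n=10/group) were given daily oral capecitabine (castor oil/ethanol 1:1, diluted with PBS). Thymidine derivative gel, alone or combined with uridine derivative, or blank gel was applied to both hind paws for ~4 h daily until blank controls developed hand-foot syndrome. Control rate was blank incidence minus treated incidence; paws were also examined by HE and IHC.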
# [2] = tested on: pain in capecitabine hand-foot syndrome rats; experiment: Pain of hand-foot syndrome, mechanical sensitivity in rats (von Frey); assay type: in vivo, rat; settings: capecitabine 4000 mg/kg hand-foot syndrome rats; thymidine derivative 3%
# Procedure: According to the method of Examples 91-115, after administration of a thymidine derivative (at a concentration of 3%) and co-administration of a thymidine derivative (at a concentration of 1%) with a uridine derivative (at a concentration of 3%) to rat hand-foot syndrome models constructed from 4000 mg/kg of capecitabine for a period of time, pain analysis was performed on the rats, and the pain assessment model was mechanical sensitivity in rats (von Frey). The experimental steps were as follows: first, the rats were allowed to adapt in the room for 1 hour, then the rats were placed in an observation box with a metal mesh floor, and the mice were allowed to stay in the box for 20 minutes to adapt to the experimental platform. Next, a von Frey device was used to detect paw pain by stimulating the surface of the rat's palm with specially designed cilia to detect the mechanical sensitivity of the animal at strength of 0.4 g, 0.8 g, 1.5 g, 2.5 g, 4 g, 8 g, 10 g and 20 g (IITC Life Science, Woodland Hills, 2390 series). […] The rat movement response was considered to be a vague response, in which case the stimulation experiment was repeated.
# HaCaT cells = experiment: Relief of 5-FU proliferative toxicity to HaCaT cells (CCK-8 cell survival); assay type: cell-based; settings: for activation at 10 µM: compound 10 μM; for activation at 100 µM: compound 100 μM; for activation at 500 µM: compound 500 μM; for activation at 1000 µM: compound 1000 μM; for activation at 1 µM: compound 1 μM; for Cell Survival Rate (increased percentage of cell survival compared with the Group of 5-FU): 5-Fu 20 μM, HaCaT cells
# Summary of the method: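 HaCaT keratinocytes (5000–10000/well) cultured 24 h, then exposed 48 h to 5-FU alone or with thymidine derivative, or thymidine plus uridine derivative mix, versus solvent-matched blanks. Survival by CCK-8; value is % increase in survival over 5-FU alone, t-test.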
# [3] = gel 3 wt%, read-out: Control Rate Forepaws
# [4] = gel 3 wt%, read-out: Control Rate Hindpaws
# [5] = Homo sapiens, HaCaT, increase vs Group of 5-FU, 5-FU 20 μM, 48 h, read-out: Cell Survival Rate
# [6] = gel 1 wt%, read-out: Control Rate Forepaws
# [7] = gel 1 wt%, read-out: Control Rate Hindpaws
# [8] = gel 5 wt%, read-out: Control Rate Forepaws
# [9] = gel 5 wt%, read-out: Control Rate Hindpaws
# [10] = selected compound final concentration 1.6 μM
# [11] = selected compound final concentration 3.13 μM
# [12] = selected compound final concentration 6.25 μM
# [13] = selected compound final concentration 12.5 μM
# [14] = selected compound final concentration 25 μM
# [15] = selected compound final concentration 50 μM
# [16] = selected compound final concentration 0.8 μM
smiles,measurement,setting,value
CC(=O)OCC1OC(n2cc(C)c(=O)[nH]c2=O)CC1OC(C)=O (centres unmarked) [T1],inhibition in vivo at 3 %,[1]; [3],57.1%
same,inhibition in vivo at 3 %,[1]; [4],71.4%
same,Control Rate,[1]; gel 0.5 wt% on hind paws,20.00%
same,Control Rate,[1]; gel 2 wt% on hind paws,27.50%
same,Control Rate,[1]; gel 5 wt% on hind paws,56.67%
same,pain in rats (von Frey mechanical sensitivity),[2],did not significantly improve pain in rats
same,activation at 5 µM,"HaCaT cells; Homo sapiens, HaCaT, increase vs Group of 5-FU, 5-FU 20 μM, compound 5 μM, 48 h, read-out: Cell Survival Rate",1 to 6%
same,activation at 10 µM,HaCaT cells; [5],10 to 16%
same,activation at 50 µM,"HaCaT cells; Homo sapiens, HaCaT, increase vs Group of 5-FU, 5-FU 20 μM, compound 50 μM, 48 h, read-out: Cell Survival Rate",21 to 26%
same,activation at 100 µM,HaCaT cells; [5],31 to 37%
same,activation at 200 µM,"HaCaT cells; Homo sapiens, HaCaT, increase vs Group of 5-FU, 5-FU 20 μM, compound 200 μM, 48 h, read-out: Cell Survival Rate",42 to 48%
same,activation at 500 µM,HaCaT cells; [5],36 to 41%
same,activation at 1000 µM,HaCaT cells; [5],35 to 42%
same,activation at 1500 µM,"HaCaT cells; Homo sapiens, HaCaT, increase vs Group of 5-FU, 5-FU 20 μM, compound 1500 μM, 48 h, read-out: Cell Survival Rate",29 to 33%
same,activation at 3000 µM,"HaCaT cells; Homo sapiens, HaCaT, increase vs Group of 5-FU, 5-FU 20 μM, compound 3000 μM, 48 h, read-out: Cell Survival Rate",17 to 23%
CC(=O)O[C@H]1C[C@H](n2cc(C)c(=O)[nH]c2=O)O[C@@H]1CO [T2],Control Rate,[1]; gel 1 wt% on hind paws,23.33%
same,activation at 1 µM,HaCaT cells; [5],14 to 18%
same,activation at 10 µM,HaCaT cells; [5],35 to 45%
same,activation at 100 µM,HaCaT cells; [5],70 to 80%
same,activation at 500 µM,HaCaT cells; [5],75 to 85%
same,activation at 1000 µM,HaCaT cells; [5],60 to 70%
CC(=O)OC[C@H]1O[C@@H](n2cc(C)c(=O)[nH]c2=O)C[C@@H]1O [T3],Control Rate,[1]; gel 1 wt% on hind paws,27.50%
same,activation at 1 µM,HaCaT cells; [5],13 to 18%
same,activation at 10 µM,HaCaT cells; [5],30 to 38%
same,activation at 100 µM,HaCaT cells; [5],80 to 86%
same,activation at 500 µM,HaCaT cells; [5],69 to 75%
same,activation at 1000 µM,HaCaT cells; [5],58 to 65%
COc1ccc2cc([C@H](C)C(=O)OC[C@H]3O[C@@H](n4cc(C)c(=O)[nH]c4=O)C[C@@H]3O)ccc2c1 [T25],inhibition in vivo at 0.1 %,"[1]; gel 0.10 wt%, read-out: Control Rate Forepaws",22.2%
same,inhibition in vivo at 0.1 %,"[1]; gel 0.10 wt%, read-out: Control Rate Hindpaws",33.3%
same,inhibition in vivo at 0.5 %,"[1]; gel 0.50 wt%, read-out: Control Rate Forepaws",22.2%
same,inhibition in vivo at 0.5 %,"[1]; gel 0.50 wt%, read-out: Control Rate Hindpaws",44.4%
same,inhibition in vivo at 1 %,[1]; [6],37.5%
same,inhibition in vivo at 1 %,[1]; [7],50%
same,inhibition in vivo at 3 %,[1]; [3],62.5%
same,inhibition in vivo at 3 %,[1]; [4],75%
same,inhibition in vivo at 5 %,[1]; [8],57.1%
same,inhibition in vivo at 5 %,[1]; [9],71.4%
same,pain in rats (von Frey mechanical sensitivity),[2],could significantly improve pain in rats
"Cc1cn([C@H]2C[C@H](O)[C@@H](COC(=O)C(C)c3cccc(Oc4ccccc4)c3)O2)c(=O)[nH]c1=O (stereo partly drawn) [T27, ((2R,3S, 5R)-3-hydroxyl-5-(5-methyl-2,4-dioxy-3,4-dihydropyrimidin-1(2H)-yl)tetrahydrofuran-2-yl)2-(3-phenoxyphenyl)propionate Methyl]",Control Rate Forepaws,[1]; gel 0.10 wt%,22.22%
same,Control Rate Hindpaws,[1]; gel 0.10 wt%,44.44%
same,Control Rate Forepaws,[1]; gel 0.50 wt%,33.33%
same,Control Rate Hindpaws,[1]; gel 0.50 wt%,33.33%
same,Control Rate Forepaws,[1]; gel 1 wt%,25%
same,Control Rate Hindpaws,[1]; gel 1 wt%,50%
same,Control Rate Forepaws,[1]; gel 3 wt%,57.14%
same,Control Rate Hindpaws,[1]; gel 3 wt%,71.43%
same,Control Rate Forepaws,[1]; gel 5 wt%,50%
same,Control Rate Hindpaws,[1]; gel 5 wt%,75.00%
same,pain in rats (von Frey mechanical sensitivity),[2],could significantly improve pain in rats
same,Cell Survival Rate (increased percentage of cell survival compared with the Group of 5-FU),HaCaT cells; [10],39%-45%
same,Cell Survival Rate (increased percentage of cell survival compared with the Group of 5-FU),HaCaT cells; [11],51%-58%
same,Cell Survival Rate (increased percentage of cell survival compared with the Group of 5-FU),HaCaT cells; [12],54%-61%
same,Cell Survival Rate (increased percentage of cell survival compared with the Group of 5-FU),HaCaT cells; [13],51%-59%
same,Cell Survival Rate (increased percentage of cell survival compared with the Group of 5-FU),HaCaT cells; [14],49%-57%
same,Cell Survival Rate (increased percentage of cell survival compared with the Group of 5-FU),HaCaT cells; [15],46%-53%
Cc1cn([C@H]2C[C@H](O)[C@@H](COC(=O)[C@H](C)c3ccc(CC(C)C)cc3)O2)c(=O)[nH]c1=O [T32],inhibition in vivo at 3 %,[1]; [3],37.5%
same,inhibition in vivo at 3 %,[1]; [4],62.5%
same,pain in rats (von Frey mechanical sensitivity),[2],could significantly improve pain in rats
same,Cell Survival Rate (increased percentage of cell survival compared with the Group of 5-FU),HaCaT cells; [11],35%-41%
same,Cell Survival Rate (increased percentage of cell survival compared with the Group of 5-FU),HaCaT cells; [12],29%-36%
same,Cell Survival Rate (increased percentage of cell survival compared with the Group of 5-FU),HaCaT cells; [13],46%-52%
same,Cell Survival Rate (increased percentage of cell survival compared with the Group of 5-FU),HaCaT cells; [14],53%-60%
same,Cell Survival Rate (increased percentage of cell survival compared with the Group of 5-FU),HaCaT cells; [15],59%-66%
same,Cell Survival Rate (increased percentage of cell survival compared with the Group of 5-FU),HaCaT cells; selected compound final concentration 100 μM,78%-85%
Cc1ccc(C(=O)c2ccc(CC(=O)OC[C@H]3O[C@@H](n4cc(C)c(=O)[nH]c4=O)C[C@@H]3O)n2C)cc1 [T36],Control Rate Forepaws,[1]; gel 1 wt%,28.57%
same,Control Rate Hindpaws,[1]; gel 1 wt%,42.86%
same,Control Rate Forepaws,[1]; gel 3 wt%,44.44%
same,Control Rate Hindpaws,[1]; gel 3 wt%,44.44%
same,pain in rats (von Frey mechanical sensitivity),[2],could significantly improve pain in rats
same,Cell Survival Rate (increased percentage of cell survival compared with the Group of 5-FU),HaCaT cells; [11],27%-35%
same,Cell Survival Rate (increased percentage of cell survival compared with the Group of 5-FU),HaCaT cells; [12],38%-46%
same,Cell Survival Rate (increased percentage of cell survival compared with the Group of 5-FU),HaCaT cells; [13],52%-60%
same,Cell Survival Rate (increased percentage of cell survival compared with the Group of 5-FU),HaCaT cells; [14],53%-61%
same,Cell Survival Rate (increased percentage of cell survival compared with the Group of 5-FU),HaCaT cells; [15],49%-57%
CC1=C(CC(=O)OC[C@H]2O[C@@H](n3cc(C)c(=O)[nH]c3=O)C[C@@H]2O)c2cc(F)ccc2/C1=C\c1ccc([S+](C)[O-])cc1 (some centres unmarked) [T40],inhibition in vivo at 3 %,[1]; [3],44.4%
same,inhibition in vivo at 3 %,[1]; [4],66.7%
same,Cell Survival Rate (increased percentage of cell survival compared with the Group of 5-FU),HaCaT cells; [16],42%-50%
same,Cell Survival Rate (increased percentage of cell survival compared with the Group of 5-FU),HaCaT cells; [10],57%-65%
same,Cell Survival Rate (increased percentage of cell survival compared with the Group of 5-FU),HaCaT cells; [11],45%-52%
same,Cell Survival Rate (increased percentage of cell survival compared with the Group of 5-FU),HaCaT cells; [12],47%-56%
same,Cell Survival Rate (increased percentage of cell survival compared with the Group of 5-FU),HaCaT cells; [13],49%-54%
same,Cell Survival Rate (increased percentage of cell survival compared with the Group of 5-FU),HaCaT cells; [14],58%-65%
same,Cell Survival Rate (increased percentage of cell survival compared with the Group of 5-FU),HaCaT cells; [15],48%-55%
Cc1ccc(C(=O)c2ccc(CC(=O)O[C@H]3C[C@H](n4cc(C)c(=O)[nH]c4=O)O[C@@H]3CO)n2C)cc1 [T45],inhibition in vivo at 1 %,[1]; [6],25%
same,inhibition in vivo at 1 %,[1]; [7],37.5%
same,inhibition in vivo at 5 %,[1]; [8],55.6%
same,inhibition in vivo at 5 %,[1]; [9],77.8%
same,pain in rats (von Frey mechanical sensitivity),[2],could significantly improve pain in rats
same,Cell Survival Rate (increased percentage of cell survival compared with the Group of 5-FU),HaCaT cells; [16],34%-41%
same,Cell Survival Rate (increased percentage of cell survival compared with the Group of 5-FU),HaCaT cells; [10],39%-46%
same,Cell Survival Rate (increased percentage of cell survival compared with the Group of 5-FU),HaCaT cells; [11],63%-70%
same,Cell Survival Rate (increased percentage of cell survival compared with the Group of 5-FU),HaCaT cells; [12],59%-67%
same,Cell Survival Rate (increased percentage of cell survival compared with the Group of 5-FU),HaCaT cells; [13],48%-55%
same,Cell Survival Rate (increased percentage of cell survival compared with the Group of 5-FU),HaCaT cells; [14],44%-51%
same,Cell Survival Rate (increased percentage of cell survival compared with the Group of 5-FU),HaCaT cells; [15],39%-46%
